In publication PMC6958387, “Biological Evaluation of Arylsemicarbazone Derivatives as Potential Anticancer Agents” (Pharmaceuticals, 2019):

How the values were obtained:
[1] = tested on: K562, HL-60, MOLT-4, HEp-2, NCI-H292, HT-29 and MCF-7 tumor cell lines; assay: Cytotoxic screening against the panel of tumor cell lines (MTT); type: cell-based, human; details: Homo sapiens; range over the seven tumor cell lines, 72 h; read-out: IC50 values across all tested cell lines
Procedure: The cytotoxicity assessment was performed against three human cancer cell lines in suspension (K562, HL-60 and MOLT-4) and four adhered (HEp-2, NCI-H292, HT-29 and MCF-7).
The cells were obtained from the Cell Bank of Rio de Janeiro and maintained in the Laboratory of Cell Culture of the Department of Antibiotics of the Federal University of Pernambuco. The lines K562 (myeloblastic leukaemia), HL-60 (promyelocytic leukemia) and MOLT-4 (lymphoblastic leukemia) were cultured in RPMI 1640 medium and the lines HEp-2 (larynx carcinoma), NCI-H292 (lung carcinoma), HT-29 (colon adenocarcinoma) and MCF-7 (breast adenocarcinoma) were cultured in DMEM medium, supplemented with 10% fetal bovine serum, 2 mM glutamine, 100 U/mL penicillin and 100 μg/mL streptomycin (Gibco™ Life Technologies), at 37 °C and 5% CO2.
The evaluation of the cytotoxicity of the compounds was performed by the method of 3-(4,5-dimethyl-2-thiazolyl)-2,5-diphenyl-2H-tetrazolium bromide (MTT) (Sigma Aldrich Co., St. Louis, MO, USA). To perform the assay the cells were seeded in 96-well plates at the following concentrations: HL-60 and K562 (0.3 × 10^6 cells/mL); MOLT-4 and PBMC (10^6 cells/mL); NCI-H292, HT-29, HEp-2 e MCF-7 (10^5 cells/mL). Briefly, the compounds previously dissolved in DMSO (dimethylsulfoxide, Vetec, São Paulo, Brazil), were diluted in medium and added to each well at the desired concentrations. For the calculation of the concentration that inhibits 50% of cell growth (IC50) the compounds were serially diluted to obtain the final concentrations between 0.19–25 μg/mL. Doxorubicin was used as the standard in the concentration range between (0.078–10 μg/mL). After 72 h of contact of the cells with the compounds, it was added to each well 25 μL of MTT solution (5 mg/mL). […] To perform the reading, 100 μL of DMSO was added in each well for the dissolution of the formazan crystals. The amount of formazan was measured by reading the plate at 560 nm absorbance. The IC50 was calculated from the nonlinear regression in the Prisma 7.0 software (GraphPad, San Diego, CA, USA). […]

CDK5/p25 = biological target: T1, CDK5/p25 (Homo sapiens, UniProt Q00535); assay: Kinase inhibition assay (ADP-Glo); type: biochemical; details: 10 µM ATP
T1 construct: made in house; host or cells: bacteria
T1 sequence (Q00535 whole entry): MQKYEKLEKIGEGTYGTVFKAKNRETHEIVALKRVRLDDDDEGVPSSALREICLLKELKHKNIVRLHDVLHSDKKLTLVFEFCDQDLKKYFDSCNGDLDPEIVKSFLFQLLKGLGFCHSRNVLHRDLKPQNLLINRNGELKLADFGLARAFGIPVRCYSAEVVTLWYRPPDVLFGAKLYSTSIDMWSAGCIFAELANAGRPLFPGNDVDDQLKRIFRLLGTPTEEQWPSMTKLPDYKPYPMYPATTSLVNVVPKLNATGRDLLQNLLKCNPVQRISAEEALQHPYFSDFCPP
T1 sequence (Q15078 99-307 partner limits assumed): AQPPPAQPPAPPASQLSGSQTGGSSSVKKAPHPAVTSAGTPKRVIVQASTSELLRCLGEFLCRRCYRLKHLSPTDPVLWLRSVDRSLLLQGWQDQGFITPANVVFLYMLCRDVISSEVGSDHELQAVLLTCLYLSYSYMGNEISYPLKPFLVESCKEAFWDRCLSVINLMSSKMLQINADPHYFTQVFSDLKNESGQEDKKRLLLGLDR
Procedure: HsCDK5/p25 (human, recombinant, expressed in bacteria) was assayed in buffer A, with 0.8 µg/µL of histone H1 as substrate.

[2] = biological target: panel of ten different protein kinases; assay: Kinase inhibition, panel of ten protein kinases; type: biochemical; details: 3c: except towards HASPIN, CK1 and GSK3; inactive = IC50 > 10 μM; read-out: IC50 across the kinase panel
Excerpt: A panel of ten native or recombinant protein kinases was used during this study: […]

CDK9/CyclinT = CDK9/CyclinT (Homo sapiens, UniProt P50750); assay: Kinase inhibition assay (ADP-Glo)
Sequence of CDK9/CyclinT (P50750 whole entry): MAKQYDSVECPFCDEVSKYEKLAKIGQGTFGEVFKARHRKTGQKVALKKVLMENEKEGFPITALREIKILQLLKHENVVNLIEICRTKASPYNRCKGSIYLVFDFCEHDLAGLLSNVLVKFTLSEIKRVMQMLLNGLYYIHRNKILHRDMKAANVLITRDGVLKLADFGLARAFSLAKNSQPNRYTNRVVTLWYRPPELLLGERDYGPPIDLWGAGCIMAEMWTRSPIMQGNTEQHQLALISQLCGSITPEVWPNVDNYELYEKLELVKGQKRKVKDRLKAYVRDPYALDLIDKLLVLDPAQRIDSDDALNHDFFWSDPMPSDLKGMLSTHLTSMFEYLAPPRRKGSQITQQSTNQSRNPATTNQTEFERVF
Sequence of CDK9/CyclinT (O60563 whole entry partner): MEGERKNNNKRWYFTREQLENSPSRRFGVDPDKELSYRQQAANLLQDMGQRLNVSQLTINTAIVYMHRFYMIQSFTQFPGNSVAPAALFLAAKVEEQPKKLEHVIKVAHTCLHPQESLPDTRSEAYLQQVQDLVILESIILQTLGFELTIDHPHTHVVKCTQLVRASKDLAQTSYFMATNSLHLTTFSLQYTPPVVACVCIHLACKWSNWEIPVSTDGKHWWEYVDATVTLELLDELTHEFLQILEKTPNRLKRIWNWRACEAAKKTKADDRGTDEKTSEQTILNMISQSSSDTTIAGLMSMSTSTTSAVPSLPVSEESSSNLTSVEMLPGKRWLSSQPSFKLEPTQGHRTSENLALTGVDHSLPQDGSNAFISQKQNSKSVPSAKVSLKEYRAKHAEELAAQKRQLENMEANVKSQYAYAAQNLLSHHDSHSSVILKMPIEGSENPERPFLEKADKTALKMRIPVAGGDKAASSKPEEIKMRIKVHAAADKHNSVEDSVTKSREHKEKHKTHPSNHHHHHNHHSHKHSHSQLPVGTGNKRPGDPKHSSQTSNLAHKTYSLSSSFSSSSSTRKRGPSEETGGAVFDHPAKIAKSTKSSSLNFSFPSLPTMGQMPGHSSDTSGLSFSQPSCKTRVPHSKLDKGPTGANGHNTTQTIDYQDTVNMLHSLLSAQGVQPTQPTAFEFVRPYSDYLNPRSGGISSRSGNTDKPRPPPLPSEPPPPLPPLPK
Procedure: The protein kinases studied were: CDK2/CyclinA, CDK5/p25, CDK9/CyclinT (cyclin-dependent kinases), HASPIN (haploid germ cell-specific nuclear protein kinase), PIM1 (PIM family kinase 1), CLK1 (cdc2-like kinase 1), DYRK1A (dual-specificity tyrosine phosphorylation regulated kinase), CK1δ/ε (casein kinase 1 isoforms), GSK3α/β (glycogen synthase kinase 3) and AURKB (aurora kinase B). Initially, all compounds were first tested at 10 μM. […] Compounds displaying more than 50% inhibition at 10 μM were next tested over a wide range of concentrations (usually 0.01–10 μM), and IC50 values were determined from the dose-response curves (Sigma-Plot).
Kinase activities were assayed in appropriate kinase buffer, with either protein or peptide as substrate in the presence of 10 µM ATP in a final volume of 6 µL using the ADP-Glo^TM assay kit (Promega, Madison, WI, USA, as described in Zegzouti et al. [66]). Controls were performed with appropriate dilutions of dimethylsulfoxide (solvent of the tested compounds).
The buffers used for kinase assays are the following: (A) 10 mM MgCl2, 1 mM EGTA, 1 mM DTT, 25 mM Tris-HCl pH 7.5, 50 µg/mL heparin; (B) 25 mM MOPS, pH 7.2, 12.5 mM -glycerolphosphate, 25 mM MgCl2, 5 mM EGTA, 2 mM EDTA, 0.25 mM DTT.

HASPIN = biological target: T2, HASPIN (Homo sapiens, UniProt Q8TF76); assay: Kinase inhibition assay (ADP-Glo); type: biochemical; details: 10 µM ATP
T2 construct: kinase domain, amino acids 470 to 798; made in house; host or cells: bacteria
T2 sequence (Q8TF76 470-798): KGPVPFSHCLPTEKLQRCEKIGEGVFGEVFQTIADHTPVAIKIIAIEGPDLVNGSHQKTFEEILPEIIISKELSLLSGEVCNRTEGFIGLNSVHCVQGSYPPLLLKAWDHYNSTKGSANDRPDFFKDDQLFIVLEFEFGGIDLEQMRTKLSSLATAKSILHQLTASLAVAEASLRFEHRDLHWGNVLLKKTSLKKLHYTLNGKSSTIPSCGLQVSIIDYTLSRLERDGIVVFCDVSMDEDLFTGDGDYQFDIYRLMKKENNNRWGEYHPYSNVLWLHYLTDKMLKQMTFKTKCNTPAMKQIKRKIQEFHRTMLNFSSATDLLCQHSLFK
Procedure: HsHASPIN (human, kinase domain, amino acids 470 to 798, recombinant, expressed in bacteria) was assayed in buffer A with 0.007 µg/µL of Histone H3 (1-21) peptide ([…]) as substrate;

PIM1 = biological target: T3, PIM1 (Homo sapiens, UniProt P11309); assay: Kinase inhibition assay (ADP-Glo); type: biochemical; details: 10 µM ATP
T3 construct: made in house; host or cells: bacteria
T3 sequence (P11309 whole entry): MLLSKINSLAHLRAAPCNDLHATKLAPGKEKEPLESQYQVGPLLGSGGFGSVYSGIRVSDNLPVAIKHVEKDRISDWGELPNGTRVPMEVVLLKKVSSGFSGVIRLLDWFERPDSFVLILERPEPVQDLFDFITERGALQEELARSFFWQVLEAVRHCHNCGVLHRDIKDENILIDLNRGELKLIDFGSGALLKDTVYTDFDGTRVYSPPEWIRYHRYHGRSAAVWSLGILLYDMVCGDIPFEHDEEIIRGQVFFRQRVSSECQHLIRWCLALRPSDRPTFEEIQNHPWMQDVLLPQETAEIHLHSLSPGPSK
Procedure: HsPIM1 (human proto-oncogene, recombinant, expressed in bacteria) was assayed in buffer B with 0.8 µg/µL of histone H1 (Sigma #H5505) as substrate.

DYRK1A = biological target: T4, DYRK1A (Rattus norvegicus, UniProt Q63470); assay: Kinase inhibition assay (ADP-Glo); type: biochemical; details: 10 µM ATP
T4 construct: amino acids 1 to 499 including the kinase domain; made in house; host or cells: bacteria
Procedure: RnDYRK1A (Rattus norvegicus, amino acids 1 to 499 including the kinase domain, recombinant, expressed in bacteria, DNA vector kindly provided by Dr. W. Becker, Aachen, Germany) was assayed in buffer A with 0.033 μg/µL of the following peptide: KKISGRLSPIMTEQ as substrate.

Structure (SMILES)	IC50 [1] [µM]	IC50 (CDK5/p25) [µM]	IC50 [2] [µM]	IC50 (CDK9/CyclinT) [µM]	IC50 (HASPIN) [µM]	IC50 (PIM1) [µM]	IC50 (DYRK1A) [µM]
NC(=O)N/N=C/c1c(O)ccc2ccccc12 [Compound 3c, 2-Hydroxynaphthaldehyde Semicarbazone]	13.1 to 56.3	0.35	0.073 to 5.1	0.86	> 10	0.52	0.073
Cc1ccc(C=NNC(N)=O)cc1 [Compound 3g, 4-Methylbenzaldehyde Semicarbazone]		> 10	> 10	> 10	> 10	> 10	> 10
CCCCN(N=Cc1ccc([N+](=O)[O-])o1)C(N)=O [Compound 4a, 5-Nitro-2-(N^2-n-butyl)furfuraldehyde Semicarbazone]	11.4 to 37.9	> 10		> 10	> 10	> 10	> 10
